Measurements from patent US20090137658A1, “BENZENESULFONIC ACID SALT COMPOUNDS” (Tanabe Seiyaku Co.,Ltd., priority 2003, published 2009).
Entries after “also recorded” stand apart in the source; their conditions may differ.

Columns and labels:
Format in all cases: physicochemical
[1] = Hygroscopicity / deliquescence of crystalline salts at elevated relative humidity
Text: This is exemplified by the hygroscopicity of the crystalline hydrochloride (HCl) salt of trans-4-({2-[(2S)-2-cyanopyrrolidinyl]-2-oxoethyl}amino)-N,N-dimethylcyclohexanecarboxamide. […] That is, the benzenesulfonic acid salts of the present invention sorb much lower amounts of water when exposed to a broad range of humidities and can be prepared in a physically stable crystal form, thus enhancing their suitability as medicaments.

[2] = Moisture sorption testing of besylate monohydrate salt (integrated gas flow microbalance)
Description: Moisture sorption was measured with an integrated gas flow microbalance system. Approximately 20 mg of 4-({2-[(2S)-2-cyanopyrrolidinyl]-2-oxoethyl}amino)-N,N-dimethylcyclohexanecarboxamide besylate monohydrate salt was weighed into a sample pan of an integrated gas flow microbalance system (SGA100, VTI Corporation). The sample was dried at 60° C. under a dry nitrogen stream until the rate of weight loss was less than 0.015% in 5 minutes. After drying the sample was equilibrated at 25° C. and the relative humidity increased stepwise (adsorption) to 5, 15, 25, 35, 45, 55, 65, 75, 85 and 95% Each relative humidity step was held until the sample equilibrated at that condition. Equilibrium was defined as a weight change of less than 0.015% in 5 minutes. The relative humidity was then decreased step wise (desorption) to 90, 80, 70, 60, 50, 40, and 20% Each step was held until equilibrium was reached. The equilibrium condition was the same as in the sorption phase. The % w/w increase or decrease in moisture content of the sample is reported for each equilibrated RH condition.

[3] = Infrared (IR) studies of hydration/dehydration of besylate monohydrate
Description: The partially dehydrated form of the monohydrate Form 1 of Formula I is stable for at least 24 hours at room temperature and partial hydration to the monohydrate of Formula I can be recovered at higher relative humidity (RH).
Samples of trans-4-({2-[(2S)-2-cyanopyrrolidinyl]-2-oxoethyl}amino)-N,N-dimethylcyclohexane-carboxamide besylate monohydrate either as a pure solid or diluted in KBr powder were placed inside a FTIR spectrometer purged under dry N2 at room temperature (RT). […] Upon re-exposure of the partially dehydrated samples to the atmosphere for <1 min., the intensities of these IR bands are fully recovered. The FTIR spectrum of this experiment is in FIG. 4.

[4] = Moisture sorption testing of besylate anhydrate salt (integrated vacuum microbalance); details: in the presence of water vapour, such as at elevated relative humidity
Description: Moisture sorption was measured with an integrated vacuum microbalance system. Approximately 11 mg of 4-({2-[(2S)-2-cyanopyrrolidinyl]-2-oxoethyl}amino)-N,N-dimethylcyclohexanecarboxamide besylate anhydrate salt was weighed into a sample pan of an integrated vacuum microbalance system (MB300G, VTI Corporation). The sample was dried at 60° C. under vacuum until the rate of weight loss was less than 0.015% in 2 minutes. After drying the sample was equilibrated at 25° C. and the relative humidity increased stepwise (adsorption) to 15, 25, 35, 45, 55, 65, 75, 85 and 95% Each relative humidity step was held until the sample equilibrated at that condition. Equilibrium was defined as a weight change of less than 0.015% in 2 minutes. The relative humidity was then decreased step wise (desorption) to 90, 80, 70, 60, 50, 40, 30 and 20% Each step was held until equilibrium was reached. The equilibrium condition was the same as in the sorption phase. The % w/w increase or decrease in moisture content of the sample is reported for each equilibrated RH condition.

[5] = purged under dry N2 at room temperature

CN(C)C(=O)[C@H]1CC[C@H](NCC(=O)N2CCC[C@H]2C#N)CC1.Cl (relative stereo) [HCl salt, trans-4-({2-[(2S)-2-cyanopyrrolidinyl]-2-oxoethyl}-amino)-N,N-dimethylcyclohexanecarboxamide hydrochloride]
time to deliquesce ([1]; 25° C., relative humidities greater than 75%): approximately 20 hours | time to deliquesce ([1]; 40° C., relative humidities of greater than 75%): approximately 24 hours

CN(C)C(=O)[C@H]1CC[C@H](NCC(=O)N2CCC[C@H]2C#N)CC1 [Form 1, trans-4-({2-[(2S)-2-cyanopyrrolidinyl]-2-oxoethyl}amino)-N,N-dimethylcyclohexanecarboxamide benzenesulfonate monohydrate]
water absorbed ([2]; relative humidity between 0% and 95% at 25° C.): less than 10 % w/w | additional water sorbed by the monohydrate ([2]; up to 95% relative humidity, on top of monohydrate water content): 1-2 % w/w | desorption of adsorbed water ([2]; when the relative humidity is decreased): readily desorbs | re-exposure time to the atmosphere after which IR bands are fully recovered ([3]; partially dehydrated samples re-exposed to the atmosphere): < 1 min | time to reach dehydration equilibrium (IR bands of H2O) [3, 5]: ~30 min | time within which IR bands assigned to H2O decreased very rapidly [3, 5]: ≤ 10 min | stability of the partially dehydrated form ([3]; room temperature): at least 24 hours | dehydration (loss of water) ([3]; room temperature, purged with or exposed to dried air or dry nitrogen (low relative humidity), benzenesulfonate monohydrate): loses water readily; also recorded: partial dehydration of the hydrate is facile | re-hydration of the dehydrated form ([3]; upon exposure to atmospheric humidity / higher relative humidities, benzenesulfonate monohydrate): re-hydration occurs rapidly; also recorded: re-hydration to the monohydrate occurs very rapidly

CN(C)C(=O)C1CCC(NCC(=O)N2CCC[C@H]2C#N)CC1.O=S(=O)(O)c1ccccc1 (stereo partly drawn) [Form 2, trans-4-({2-[(2S)-2-cyanopyrrolidinyl]-2-oxoethyl}amino)-N,N-dimethylcyclohexanecarboxamide besylate anhydrate]
conversion of anhydrate form [4]: converts to the hydrate
